# Measurements taken from BindingDB's records for PubMed 32066009 (Hefei University of Technology, 2020).
# Assays:
# Prothrombin = Prothrombin (Homo sapiens, UniProt P00734); assay: Inhibition of thrombin (unknown origin)
# Coagulation factor X = Coagulation factor X (Homo sapiens, UniProt P00742); assay: Inhibition of human fXA by fluorescence based analysis
# Coagulation factor XII = molecular target: T1, Coagulation factor XII (Homo sapiens, UniProt P00748); assay: Inhibition of human fXIIA by fluorescence based analysis
# T1 sequence (P00748 whole entry): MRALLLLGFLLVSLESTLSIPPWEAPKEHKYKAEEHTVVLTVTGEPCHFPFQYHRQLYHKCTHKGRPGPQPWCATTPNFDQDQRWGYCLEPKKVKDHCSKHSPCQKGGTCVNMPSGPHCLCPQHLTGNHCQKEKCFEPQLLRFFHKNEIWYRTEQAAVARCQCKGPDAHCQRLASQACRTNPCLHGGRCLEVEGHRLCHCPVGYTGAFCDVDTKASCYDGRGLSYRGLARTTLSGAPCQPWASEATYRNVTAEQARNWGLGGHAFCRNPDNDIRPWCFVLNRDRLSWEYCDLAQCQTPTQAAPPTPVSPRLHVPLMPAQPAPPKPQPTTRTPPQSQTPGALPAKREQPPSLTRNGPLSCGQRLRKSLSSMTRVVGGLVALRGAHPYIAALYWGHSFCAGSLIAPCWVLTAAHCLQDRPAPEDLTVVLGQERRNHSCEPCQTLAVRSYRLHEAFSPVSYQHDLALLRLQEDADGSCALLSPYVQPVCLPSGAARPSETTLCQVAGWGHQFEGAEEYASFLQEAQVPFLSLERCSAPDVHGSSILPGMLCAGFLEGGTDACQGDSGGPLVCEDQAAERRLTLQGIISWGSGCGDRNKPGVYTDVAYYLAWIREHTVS
# Chain of Coagulation factor X (P00742 41-179 limits assumed): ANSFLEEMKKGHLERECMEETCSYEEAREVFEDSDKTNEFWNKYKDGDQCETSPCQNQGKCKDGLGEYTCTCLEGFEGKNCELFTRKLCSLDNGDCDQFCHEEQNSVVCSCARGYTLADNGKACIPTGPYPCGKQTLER
# Chain of Coagulation factor X (P00742 235-488 limits assumed): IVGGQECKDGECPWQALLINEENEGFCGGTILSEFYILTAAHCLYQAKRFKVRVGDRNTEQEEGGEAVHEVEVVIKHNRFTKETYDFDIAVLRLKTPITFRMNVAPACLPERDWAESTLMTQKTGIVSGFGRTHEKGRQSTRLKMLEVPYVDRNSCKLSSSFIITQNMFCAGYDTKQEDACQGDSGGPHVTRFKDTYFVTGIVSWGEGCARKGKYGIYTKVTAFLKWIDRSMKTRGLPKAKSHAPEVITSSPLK
IC50 (Prothrombin),SMILES,IC50 (Coagulation factor X),IC50 (Coagulation factor XII)
> 1000 µM,NCC1CCC(C(=O)N[C@@H](Cc2ccccc2)C(=O)Nc2ccc(CC(=O)O)cc2)CC1 (some centres undefined),,
> 1000 µM,CC(=O)c1ccc(NC(=O)[C@H](Cc2ccccc2)NC(=O)C2CCC(CN)CC2)cc1 (some centres undefined),,
,"CCOc1ccc(C[C@@H](NC(=O)c2ccccc2)C(=O)N[C@@H](Cc2ccccc2)C(=O)NCc2ccc(CN)cc2)cc1 [US9234000, 3]",> 10 µM,> 10 µM
